Test results as given in US20110015226A1, “Treatment of Energy Utilization Disease” (SUMMIT CORPORATION PLC, priority 2008, published 2011).
Where two headings read alike, the source gives them in different places.

Assays:
Assay type in all cases: biochemical
[1] = molecular target: T1, α-D-glucosidase (Yeast) (Saccharomyces cerevisiae, UniProt P53341); experiment: Glycosidase inhibition: α-D-glucosidase (Yeast); conditions: compounds tested at 0.8 mM
T1 construct: purchased Sigma
Source text: (§1) The results tabulated below were obtained using commercially available glycosidases and p-nitrophenyl-substrates using standard methods described for example by Watson et al (1997) Phytochemistry 46 255-259. All enzymes and substrates were bought from Sigma. Enzyme and substrate solutions were made using sodium phosphate buffers at the pH optima values. The enzymes used were α-D-glucosidase Saccharomyces cerevisiae, Bacillus stearothermophilus, Oryzae sativa), β-D-glucosidase (Almond), α-D-mannosidase (Jack bean), α-D-galactosidase (Green coffee beans), β-D-galactosidase (Bovine liver), α-L-fucosidase (Bovine kidney), N-acetyl-β-D-glucosaminidase (Bovine kidney, Jack bean, Aspergillus oryzae), Naringinase (Penicillium decumbens) and amyloglucosidase (Aspergillus niger). All enzymes were used with the appropriate p-nitrophenyl substrates (5 mM). Amyloglucosidase activity was measured using amylopectin (0.1%) (Merck) mixed with sodium phosphate buffer, pH 4.5 in a glass bottle, and healed in a boiling water bath for 20 minutes to dissolve with released glucose measured using ‘Trinder’ glucose detection solution (Sigma).
(§2) All enzymes and para-nitrophenyl substrates were purchased from Sigma, with the exception of beta-mannosidase which came from Megazyme. Enzymes were assayed at 27° C. in 0.1M citric acid/0.2M disodium hydrogen phosphate buffers at the optimum pH for the enzyme. The incubation mixture consisted of 10 μl enzyme solution, 10 μl of 1 mg/ml aqueous solution of extract and 50 μl of the appropriate 5 mM para-nitrophenyl substrate made up in buffer at the optimum pH for the enzyme. The reactions were stopped by addition of 70 μl 0.4M glycine (pH 10.4) during the exponential phase of the reaction, which had been determined at the beginning using uninhibited assays in which water replaced inhibitor. Final absorbances were read at 405 nm using a Versamax microplate reader (Molecular Devices). Assays were carried out in triplicate, and the values given are means of the three replicates per assay. (See Watson, A. A., Nash, R. J., Wormald, M. R., Harvey, D. J., Dealler, S., Lees, E., Asano, N., Kizu, H., Kato, A., Griffiths, R. C., Cairns, A. J. and Fleet, G. W. J. (1997). Glycosidase-inhibiting pyrrolidine alkaloids from Hyacinthoides non-scripta. Phytochemistry 46 (2): 255-259.)

[2] = molecular target: T2, α-D-glucosidase (Rice) (Oryza sativa subsp. japonica, UniProt Q653V7); experiment: Glycosidase inhibition: α-D-glucosidase (Rice); conditions: for inhibition at 800 µM: compounds tested at 0.8 mM
T2 construct: purchased Sigma
T2 sequence (Q653V7 34-885): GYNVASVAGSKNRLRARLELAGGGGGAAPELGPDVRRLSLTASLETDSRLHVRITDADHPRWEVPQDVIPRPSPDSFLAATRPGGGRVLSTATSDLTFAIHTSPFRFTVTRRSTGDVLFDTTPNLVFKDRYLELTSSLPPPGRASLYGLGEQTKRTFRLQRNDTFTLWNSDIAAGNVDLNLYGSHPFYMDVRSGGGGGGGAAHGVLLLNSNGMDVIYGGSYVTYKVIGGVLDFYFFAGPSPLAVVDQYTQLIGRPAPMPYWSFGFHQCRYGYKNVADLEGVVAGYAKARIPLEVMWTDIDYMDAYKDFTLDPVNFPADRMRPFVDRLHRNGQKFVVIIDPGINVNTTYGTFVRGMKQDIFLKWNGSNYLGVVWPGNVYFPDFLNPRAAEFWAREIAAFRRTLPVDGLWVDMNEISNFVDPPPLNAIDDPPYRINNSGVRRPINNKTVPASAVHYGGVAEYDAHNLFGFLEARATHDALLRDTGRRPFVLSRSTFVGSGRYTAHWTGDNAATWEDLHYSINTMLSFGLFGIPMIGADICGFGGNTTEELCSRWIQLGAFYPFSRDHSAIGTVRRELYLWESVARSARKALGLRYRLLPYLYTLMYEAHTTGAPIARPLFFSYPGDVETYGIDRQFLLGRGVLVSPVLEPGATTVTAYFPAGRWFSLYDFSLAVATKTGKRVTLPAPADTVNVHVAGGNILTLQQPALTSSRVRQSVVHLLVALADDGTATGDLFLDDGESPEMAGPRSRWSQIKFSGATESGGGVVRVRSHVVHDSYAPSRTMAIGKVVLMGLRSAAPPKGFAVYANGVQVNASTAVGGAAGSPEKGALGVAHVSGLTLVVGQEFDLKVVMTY

[3] = molecular target: T3, α-D-galactosidase Green coffee bean (Coffea arabica, UniProt Q42656); experiment: Glycosidase inhibition: α-D-galactosidase Green coffee bean; conditions: compounds tested at 0.8 mM
T3 construct: α-D-galactosidase (Green coffee beans); purchased Sigma; host or cells: green coffee beans
T3 sequence (Q42656 16-378): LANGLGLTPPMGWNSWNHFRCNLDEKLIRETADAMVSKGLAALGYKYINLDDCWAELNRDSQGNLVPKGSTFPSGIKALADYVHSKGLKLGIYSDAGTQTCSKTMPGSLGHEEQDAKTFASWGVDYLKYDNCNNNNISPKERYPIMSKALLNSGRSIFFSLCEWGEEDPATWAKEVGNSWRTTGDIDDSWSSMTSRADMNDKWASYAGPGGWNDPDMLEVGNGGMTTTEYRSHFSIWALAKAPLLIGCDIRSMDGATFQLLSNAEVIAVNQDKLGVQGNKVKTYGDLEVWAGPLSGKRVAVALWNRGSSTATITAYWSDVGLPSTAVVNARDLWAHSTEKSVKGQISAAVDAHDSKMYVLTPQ
Source text: as §1, §2

[4] = molecular target: T4, α-L-fucosidase Bovine kidney (Bos taurus, UniProt Q2KIM0); experiment: Glycosidase inhibition: α-L-fucosidase Bovine kidney; conditions: compounds tested at 0.8 mM
T4 construct: α-L-fucosidase (Bovine kidney); purchased Sigma; host or cells: bovine kidney
T4 sequence (Q2KIM0 23-468): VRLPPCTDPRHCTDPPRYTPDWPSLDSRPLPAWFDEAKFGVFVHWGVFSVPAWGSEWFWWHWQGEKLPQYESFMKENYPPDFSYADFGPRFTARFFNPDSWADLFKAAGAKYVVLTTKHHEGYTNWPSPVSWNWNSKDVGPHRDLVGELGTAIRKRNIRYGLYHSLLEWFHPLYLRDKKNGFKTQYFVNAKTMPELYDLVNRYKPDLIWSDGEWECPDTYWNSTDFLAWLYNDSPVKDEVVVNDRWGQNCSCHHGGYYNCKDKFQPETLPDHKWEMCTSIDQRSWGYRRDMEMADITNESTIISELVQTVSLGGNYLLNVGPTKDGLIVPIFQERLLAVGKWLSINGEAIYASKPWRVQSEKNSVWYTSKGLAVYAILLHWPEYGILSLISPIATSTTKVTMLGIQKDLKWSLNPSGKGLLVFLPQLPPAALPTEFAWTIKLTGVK

[5] = molecular target: rabbit intestinal maltase; experiment: Rabbit disaccharidase inhibition assay: maltase; conditions: NI: no inhibition at 0.8 mM
Experimental: (§3) Sucrose (8.3 mM), maltose (5 mM) and isomaltose (6.3 mM) substrates were made using 0.2 M Macllvaine (citrate-phosphate) buffer, pH 6.0. The glucose detection reagent was prepared according to the supplier's instructions (Megazyme Ltd). Linearity of the timecourse of the reaction between the glucose detection reagent and glucose was tested using a series of glucose dilutions.
(§4) The method for preparation of mammalian small intestine mucosal disaccharidases was based on Griffiths (1998), omitting ammonium sulphate fractionation steps. The small intestine was dissected out of a female wild rabbit, and opened longitudinally using a scalpel. The mucosal layer was scraped off using the edge of a clean microscope slide, and placed into 3 ml of dH2O. The mucosal layer suspension was centrifuged at around 1000 rpm for 30 seconds to sediment tissue debris. The supernatant ([…]) was removed, and centrifuged again at 3500 rcf for 1 minute to remove fine particulates from suspension. The supernatant was diluted to give 0.2-0.25 mg/ml protein and stored at −30° C.
(§5) Enzyme assays were carried out using 5-15 μl of enzyme preparation, 5 μl of test compound (or dH2O for controls) and 15-25 μl of substrate solution. Reactions were covered using a sheet of plate sealing film, and incubated at 37° C. for 60 minutes. Glucose (from disaccharide hydrolysis) was quantified by adding 200 μl of glucose detection reagent and incubating the reactions for a further twenty-five minutes. Absorbance was measured at 510 nm against control blanks.

[6] = molecular target: T5, rabbit intestinal isomaltase (Oryctolagus cuniculus, UniProt P07768); experiment: Rabbit disaccharidase inhibition assay: isomaltase; conditions: NI: no inhibition at 0.8 mM
T5 construct: The small intestine was dissected out of a female wild rabbit; from tissue; host or cells: small-intestinal mucosa of a female wild rabbit
T5 sequence (P07768 whole entry): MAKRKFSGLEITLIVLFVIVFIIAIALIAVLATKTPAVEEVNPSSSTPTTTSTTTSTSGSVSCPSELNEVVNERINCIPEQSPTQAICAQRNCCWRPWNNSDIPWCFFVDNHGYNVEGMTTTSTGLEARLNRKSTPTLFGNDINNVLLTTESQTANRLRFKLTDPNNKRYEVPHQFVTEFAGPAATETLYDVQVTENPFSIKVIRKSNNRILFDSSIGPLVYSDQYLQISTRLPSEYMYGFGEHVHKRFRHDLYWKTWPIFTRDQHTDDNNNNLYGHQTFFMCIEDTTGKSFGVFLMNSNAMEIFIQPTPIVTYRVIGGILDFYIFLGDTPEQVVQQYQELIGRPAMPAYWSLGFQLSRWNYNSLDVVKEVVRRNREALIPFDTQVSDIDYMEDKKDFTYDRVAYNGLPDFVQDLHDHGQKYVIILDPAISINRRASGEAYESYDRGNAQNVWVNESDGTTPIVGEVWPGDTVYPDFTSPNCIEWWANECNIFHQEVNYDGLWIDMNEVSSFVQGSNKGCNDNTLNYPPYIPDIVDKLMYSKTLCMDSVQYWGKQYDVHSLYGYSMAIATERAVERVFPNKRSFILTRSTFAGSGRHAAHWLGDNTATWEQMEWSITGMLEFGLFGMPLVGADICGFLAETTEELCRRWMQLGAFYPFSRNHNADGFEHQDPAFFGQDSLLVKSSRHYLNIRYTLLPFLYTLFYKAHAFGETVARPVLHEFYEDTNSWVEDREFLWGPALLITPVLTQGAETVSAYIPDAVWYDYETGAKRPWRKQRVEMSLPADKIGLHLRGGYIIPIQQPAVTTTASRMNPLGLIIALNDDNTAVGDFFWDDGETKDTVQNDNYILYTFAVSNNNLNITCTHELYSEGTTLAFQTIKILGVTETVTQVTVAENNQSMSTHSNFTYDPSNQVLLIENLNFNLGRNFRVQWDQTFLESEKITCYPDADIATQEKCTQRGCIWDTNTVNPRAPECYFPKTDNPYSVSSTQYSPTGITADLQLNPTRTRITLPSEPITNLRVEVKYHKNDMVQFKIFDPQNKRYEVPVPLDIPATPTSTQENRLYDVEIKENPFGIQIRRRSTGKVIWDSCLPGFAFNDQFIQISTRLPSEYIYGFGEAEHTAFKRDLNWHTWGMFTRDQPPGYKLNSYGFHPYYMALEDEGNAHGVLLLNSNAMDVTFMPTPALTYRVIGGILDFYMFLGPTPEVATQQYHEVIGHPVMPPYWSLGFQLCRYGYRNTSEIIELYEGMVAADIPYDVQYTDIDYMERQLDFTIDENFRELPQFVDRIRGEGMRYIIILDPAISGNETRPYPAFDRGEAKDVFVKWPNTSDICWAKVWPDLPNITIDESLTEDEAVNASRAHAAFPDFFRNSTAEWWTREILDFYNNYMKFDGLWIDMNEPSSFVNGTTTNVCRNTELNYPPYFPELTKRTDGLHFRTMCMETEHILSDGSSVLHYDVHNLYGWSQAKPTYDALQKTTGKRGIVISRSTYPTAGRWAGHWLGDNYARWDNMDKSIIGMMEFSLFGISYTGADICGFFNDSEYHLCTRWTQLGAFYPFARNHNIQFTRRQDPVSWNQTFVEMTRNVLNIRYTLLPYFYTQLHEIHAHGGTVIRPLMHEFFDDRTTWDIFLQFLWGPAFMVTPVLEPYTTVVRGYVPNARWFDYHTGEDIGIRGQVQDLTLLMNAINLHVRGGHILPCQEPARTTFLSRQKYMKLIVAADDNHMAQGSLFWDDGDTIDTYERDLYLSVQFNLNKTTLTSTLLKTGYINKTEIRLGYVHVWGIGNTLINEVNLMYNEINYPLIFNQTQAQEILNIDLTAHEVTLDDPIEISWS
Experimental: as §3, §4, §5

[7] = system: rabbit digestive disaccharidases; experiment: Rabbit digestive disaccharidases (summary statement); conditions: at 0.8 mM
Experimental: as §3, §4, §5

T1 sequence (P53341 whole entry): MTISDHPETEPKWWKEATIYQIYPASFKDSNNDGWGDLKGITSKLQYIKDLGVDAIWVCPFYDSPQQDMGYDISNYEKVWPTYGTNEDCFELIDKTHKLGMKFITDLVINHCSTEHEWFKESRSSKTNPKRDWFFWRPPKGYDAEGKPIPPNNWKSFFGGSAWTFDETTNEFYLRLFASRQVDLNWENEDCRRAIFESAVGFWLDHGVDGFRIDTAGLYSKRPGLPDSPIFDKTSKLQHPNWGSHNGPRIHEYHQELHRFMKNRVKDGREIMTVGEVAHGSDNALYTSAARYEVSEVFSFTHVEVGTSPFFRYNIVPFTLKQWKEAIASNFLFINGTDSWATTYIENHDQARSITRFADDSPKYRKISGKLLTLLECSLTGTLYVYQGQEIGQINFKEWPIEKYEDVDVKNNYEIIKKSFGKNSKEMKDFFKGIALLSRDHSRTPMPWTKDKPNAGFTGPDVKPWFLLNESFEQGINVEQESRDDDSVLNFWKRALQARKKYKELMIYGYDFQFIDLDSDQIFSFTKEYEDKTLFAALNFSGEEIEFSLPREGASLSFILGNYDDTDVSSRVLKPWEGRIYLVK

| Structure (SMILES) | inhibition at 800 µM [1] [%] | inhibition at 800 µM [2] [%] | inhibition at 800 µM [3] [%] | inhibition at 800 µM [4] [%] | IC50 [5] [µM] | IC50 [6] [µM] | inhibition of the disaccharidases [7] | IC50 ([2]; read-out: IC50, α-D-glucosidase (Rice)) [µM] | maltase IC50 (uM) [5] | IC50 [2] [µM] |
| --- | --- | --- | --- | --- | --- | --- | --- | --- | --- | --- |
| CCCCOC(=O)[C@@H]1[C@@H](O)[C@H](O)[C@@H](O)CN1CCCC [Compound T2, (2S,3R,4R,5S)-Butyl 1-butyl-3,4,5-trihydroxypiperidine-2-carboxylate] | < 50 | < 50 | < 50 | < 50 | > 800 | > 800 | no inhibition |  |  |  |
| O=C(O)CCN1C[C@H](O)[C@@H](O)[C@H](O)[C@H]1CO [Compound T1] | < 50 | 99.1 | < 50 | < 50 | 19 |  |  | 2.4 | very weak inhibition |  |
| O=C(O)CN1[C@H](CO)[C@@H](O)[C@H](O)[C@H]1CO [Compound S2, 2-((2R,3R,4R,5R)-3,4-Dihydroxy-2,5-bis(hydroxymethyl)pyrrolidin-1-yl)acetic acid] | < 50 | < 50 | < 50 | < 50 | > 800 |  | no inhibition |  |  |  |
| O=C(O)[C@H]1NC[C@H](O)[C@@H](O)[C@@H]1O [Compound G2, 2S,3R,4R,5S-trihydroxypiperidine-2-carboxylic acid] | < 10 | 55 | < 10 | < 10 | > 800 | > 800 | no inhibition |  |  |  |
| OC[C@H]1NC[C@H](O)[C@@H](O)[C@@H]1O [DNJ, 1-deoxynojirimycin, reference compound] | 36 |  | < 10 | < 10 | 0.18 | 0.02 |  |  |  | 0.9 |
